Data from patent US8198273B2, “Compounds and methods for kinase modulation, and indications therefor” (Plexxikon Inc., priority 2009, dated 2012).

Key:
B-Raf = B-Raf (Homo sapiens, UniProt P15056); experiment: B-Raf biochemical kinase inhibition (AlphaScreen, biotin-MEK1 substrate); conditions: 100 μM ATP
Method in brief: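 Eight-point compound series (made from a 0.1 mM DMSO stock) tested against each Raf enzyme with biotin-MEK1 substrate and 100 μM final ATP.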

CYP2C9 = CYP2C9 (Homo sapiens, UniProt P11712); experiment: CYP2C9 inhibition (fluorescent substrate); type: in vitro ADME; conditions: CYP2C9, MFC substrate; read-out: Cyp IC50 2C9
Method: CYP (Cytochrome P450) enzymes are the major drug metabolizing enzymes present in the liver. The inhibition of CYP enzyme activity (IC50) for each of CYP1A2, CYP2C19, CYP2C9, CYP2D6, CYP3A4(BFC) and CYP3A4(BQ) is determined for compounds, where inhibition of metabolism of a known substrate leads to a decrease in the fluorescence of the metabolized product. The fluorescence of the product is monitored as a function of compound concentration.
Compounds are dissolved in dimethyl sulfoxide to a concentration of 100 mM. These are diluted 1 μL into 82 μL of acetonitrile. […] These are then serially diluted 1:1 (160 μL to 160 μL co-factor mix) for a total of 10 points. A 10 μL aliquot of this final mixture is dispensed into 384 well assay plates and incubated for 10 minutes at 37° C. […] Assay plates are incubated at 37° C. […] The signal versus compound concentration is used to determine the IC50. The enzymes and substrates for this assay are obtained from BD Biosciences.

CYP3A4(BQ) = CYP3A4(BQ) (Homo sapiens, UniProt P08684); experiment: CYP3A4(BQ) inhibition (fluorescent substrate); type: in vitro ADME; conditions: read-out: Cyp IC50 3A4(BQ)
Method in brief: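 Compound, from a 100 mM DMSO stock and diluted 1:1 over 10 points in co-factor mix, was incubated at 37° C with enzyme and a known substrate. Decrease in fluorescent product against concentration gave the IC50.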

[1] = Relative solubility by turbidity in aqueous buffers of varying pH; type: physicochemical; conditions: for turbidity threshold (L, M, H) 7.4: HEPES pH 7.4; for turbidity threshold (L, M, H) 4.5: SIF pH 4.5; for turbidity threshold (L, M, H) 6.8: SIF pH 6.8; for turbidity threshold (L, M, H) 1.4: buffer pH 1.4 (SGF)
Method in brief: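 Turbidity endpoint: concentration where optical density at 490, 535 and 650 nm exceeds 0.01, three-wavelength average used. Buffers at pH 1.5, 4.5, 6.8 and 7.4; DMSO serial dilutions of 25 mM stock spiked 1 μL into 99 μL buffer. Low <31.3, moderate 31.3–250, high >250 μM.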

CYP3A4(BQ), sequence (P08684 whole entry): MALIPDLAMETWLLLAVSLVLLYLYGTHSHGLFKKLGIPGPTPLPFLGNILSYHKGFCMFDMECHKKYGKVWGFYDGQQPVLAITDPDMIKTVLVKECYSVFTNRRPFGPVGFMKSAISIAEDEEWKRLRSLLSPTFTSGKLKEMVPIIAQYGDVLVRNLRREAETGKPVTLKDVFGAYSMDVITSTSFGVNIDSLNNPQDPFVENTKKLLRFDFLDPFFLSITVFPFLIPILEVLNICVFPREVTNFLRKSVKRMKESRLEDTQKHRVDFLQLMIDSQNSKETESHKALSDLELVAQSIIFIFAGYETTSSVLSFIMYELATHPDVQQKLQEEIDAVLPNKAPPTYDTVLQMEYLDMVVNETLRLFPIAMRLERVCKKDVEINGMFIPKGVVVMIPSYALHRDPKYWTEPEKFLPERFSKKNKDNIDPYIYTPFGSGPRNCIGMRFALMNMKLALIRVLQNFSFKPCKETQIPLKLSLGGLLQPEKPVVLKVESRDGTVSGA
CYP2C9, sequence (P11712 whole entry): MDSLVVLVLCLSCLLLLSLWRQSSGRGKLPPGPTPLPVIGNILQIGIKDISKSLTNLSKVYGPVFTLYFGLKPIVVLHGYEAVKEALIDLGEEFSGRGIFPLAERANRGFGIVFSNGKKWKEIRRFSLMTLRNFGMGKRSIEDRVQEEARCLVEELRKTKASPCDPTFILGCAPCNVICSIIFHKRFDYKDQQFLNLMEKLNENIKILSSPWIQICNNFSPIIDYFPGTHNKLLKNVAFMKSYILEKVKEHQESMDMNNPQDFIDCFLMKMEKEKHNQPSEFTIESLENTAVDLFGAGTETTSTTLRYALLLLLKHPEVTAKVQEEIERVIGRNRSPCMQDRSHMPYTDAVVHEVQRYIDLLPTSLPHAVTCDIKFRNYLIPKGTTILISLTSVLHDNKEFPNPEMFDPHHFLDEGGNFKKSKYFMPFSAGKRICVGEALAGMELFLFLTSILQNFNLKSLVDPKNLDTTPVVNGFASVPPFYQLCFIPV
B-Raf, sequence (P15056 whole entry): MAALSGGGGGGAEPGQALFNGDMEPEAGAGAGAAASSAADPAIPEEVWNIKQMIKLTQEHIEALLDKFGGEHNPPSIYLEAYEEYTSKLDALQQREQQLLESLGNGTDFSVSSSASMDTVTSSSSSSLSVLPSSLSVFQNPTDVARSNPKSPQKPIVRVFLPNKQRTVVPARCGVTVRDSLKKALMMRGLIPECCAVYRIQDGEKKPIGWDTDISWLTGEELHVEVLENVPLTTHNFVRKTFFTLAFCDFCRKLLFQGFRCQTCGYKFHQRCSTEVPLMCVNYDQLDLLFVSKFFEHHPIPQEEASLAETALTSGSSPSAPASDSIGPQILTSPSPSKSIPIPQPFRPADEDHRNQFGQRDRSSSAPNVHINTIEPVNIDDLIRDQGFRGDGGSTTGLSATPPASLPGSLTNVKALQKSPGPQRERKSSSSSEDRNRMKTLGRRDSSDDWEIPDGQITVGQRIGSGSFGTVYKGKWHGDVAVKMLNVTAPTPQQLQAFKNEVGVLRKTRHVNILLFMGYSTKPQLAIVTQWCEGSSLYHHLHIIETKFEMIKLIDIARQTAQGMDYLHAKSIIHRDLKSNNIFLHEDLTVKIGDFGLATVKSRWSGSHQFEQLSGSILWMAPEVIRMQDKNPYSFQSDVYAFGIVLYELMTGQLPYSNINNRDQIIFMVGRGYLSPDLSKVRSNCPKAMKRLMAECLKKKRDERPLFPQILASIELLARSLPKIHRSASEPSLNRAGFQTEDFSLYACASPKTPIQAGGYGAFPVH

Work on `O=C(c1c(F)ccc(NS(=O)(=O)c2cc(F)ccc2F)c1F)c1c[nH]c2ncc(Cl)cc12` [P-2002, N-[3-(5-Chloro-1H-pyrrolo[2,3-b]pyridine-3-carbonyl)-2,4-difluoro-phenyl]-2,5-difluoro-benzenesulfonamide] yielded an IC50 (B-Raf) of under 0.01 µM, an IC50 (CYP2C9) of 5 to 10 µM and an IC50 (CYP3A4(BQ)) of over 10 µM. The “turbidity threshold (L, M, H) 7.4” value [1] was “M (moderate solubility if the threshold concentration is 31.3 μM to 250 μM)”, the “turbidity threshold (L, M, H) 4.5” value [1] was “L (low solubility if the threshold concentration is <31.3 04)” and the “turbidity threshold (L, M, H) 6.8” value [1] was “M (moderate solubility if the threshold concentration is 31.3 μM to 250 μM)”. For the same compound, the “turbidity threshold (L, M, H) 1.4” value [1] was “L (low solubility if the threshold concentration is <31.3 04)”.

`O=C(c1c(F)ccc(NS(=O)(=O)c2c(F)cccc2F)c1F)c1c[nH]c2ncc(Cl)cc12` [P-2003, N-[3-(5-Chloro-1H-pyrrolo[2,3-b]pyridine-3-carbonyl)-2,4-difluoro-phenyl]-2,6-difluoro-benzenesulfonamide] showed an IC50 (B-Raf) of under 0.1 µM, an IC50 (CYP2C9) of over 10 µM and an IC50 (CYP3A4(BQ)) of over 10 µM. For the same compound, the “turbidity threshold (L, M, H) 7.4” value [1] was “H (high solubility if the threshold concentration is >250 μM)”, the “turbidity threshold (L, M, H) 4.5” value [1] was “M (moderate solubility if the threshold concentration is 31.3 μM to 250 μM)” and the “turbidity threshold (L, M, H) 6.8” value [1] was “M (moderate solubility if the threshold concentration is 31.3 μM to 250 μM)”. For the same compound, the “turbidity threshold (L, M, H) 1.4” value [1] was “M (moderate solubility if the threshold concentration is 31.3 μM to 250 μM)”.

Compound `COc1cnc2[nH]cc(C(=O)c3c(F)ccc(NS(=O)(=O)c4ccccc4F)c3F)c2c1` [P-2009, N-[2,4-Difluoro-3-(5-methoxy-1H-pyrrolo[2,3-b]pyridine-3-carbonyl)-phenyl]-2-fluoro-benzenesulfonamide] has an IC50 (B-Raf) of under 0.1 µM, an IC50 (CYP2C9) of over 10 µM and an IC50 (CYP3A4(BQ)) of over 10 µM. For the same compound, the “turbidity threshold (L, M, H) 7.4” value [1] was “M (moderate solubility if the threshold concentration is 31.3 μM to 250 μM)”, the “turbidity threshold (L, M, H) 4.5” value [1] was “L (low solubility if the threshold concentration is <31.3 04)” and the “turbidity threshold (L, M, H) 6.8” value [1] was “L (low solubility if the threshold concentration is <31.3 04)”. For the same compound, the “turbidity threshold (L, M, H) 1.4” value [1] was “L (low solubility if the threshold concentration is <31.3 04)”.

Compound `COc1cnc2[nH]cc(C(=O)c3c(F)ccc(NS(=O)(=O)c4cc(F)ccc4F)c3F)c2c1` [P-2010, N-[2,4-Difluoro-3-(5-methoxy-1H-pyrrolo[2,3-b]pyridine-3-carbonyl)-phenyl]-2,5-difluoro-benzenesulfonamide] has an IC50 (B-Raf) of under 0.1 µM, an IC50 (CYP2C9) of over 10 µM and an IC50 (CYP3A4(BQ)) of over 10 µM. For the same compound, the “turbidity threshold (L, M, H) 7.4” value [1] was “M (moderate solubility if the threshold concentration is 31.3 μM to 250 μM)”, the “turbidity threshold (L, M, H) 4.5” value [1] was “L (low solubility if the threshold concentration is <31.3 04)” and the “turbidity threshold (L, M, H) 6.8” value [1] was “M (moderate solubility if the threshold concentration is 31.3 μM to 250 μM)”. For the same compound, the “turbidity threshold (L, M, H) 1.4” value [1] was “L (low solubility if the threshold concentration is <31.3 04)”.

For `N#Cc1cnc2[nH]cc(C(=O)c3c(F)ccc(NS(=O)(=O)c4ccccc4F)c3F)c2c1` [P-2011, N-[3-(5-Cyano-1H-pyrrolo[2,3-b]pyridine-3-carbonyl)-2,4-difluoro-phenyl]-2-fluoro-benzenesulfonamide], the IC50 (B-Raf) was under 0.1 µM, the IC50 (CYP2C9) was over 10 µM and the IC50 (CYP3A4(BQ)) was over 10 µM. For the same compound, the “turbidity threshold (L, M, H) 7.4” value [1] was “M (moderate solubility if the threshold concentration is 31.3 μM to 250 μM)”, the “turbidity threshold (L, M, H) 4.5” value [1] was “M (moderate solubility if the threshold concentration is 31.3 μM to 250 μM)” and the “turbidity threshold (L, M, H) 6.8” value [1] was “M (moderate solubility if the threshold concentration is 31.3 μM to 250 μM)”. For the same compound, the “turbidity threshold (L, M, H) 1.4” value [1] was “M (moderate solubility if the threshold concentration is 31.3 μM to 250 μM)”.

`Cc1cnc2[nH]cc(C(=O)c3c(F)ccc(NS(=O)(=O)c4ccccc4F)c3F)c2c1` [P-2014, N-[2,4-Difluoro-3-(5-methyl-1H-pyrrolo[2,3-b]pyridine-3-carbonyl)-phenyl]-2-fluoro-benzenesulfonamide] showed an IC50 (B-Raf) of under 0.1 µM, an IC50 (CYP2C9) of over 10 µM and an IC50 (CYP3A4(BQ)) of over 10 µM. The “turbidity threshold (L, M, H) 7.4” value [1] was “M (moderate solubility if the threshold concentration is 31.3 μM to 250 μM)”, the “turbidity threshold (L, M, H) 4.5” value [1] was “M (moderate solubility if the threshold concentration is 31.3 μM to 250 μM)” and the “turbidity threshold (L, M, H) 6.8” value [1] was “M (moderate solubility if the threshold concentration is 31.3 μM to 250 μM)”. The “turbidity threshold (L, M, H) 1.4” value [1] was “L (low solubility if the threshold concentration is <31.3 04)”.

In the case of `Cc1cnc2[nH]cc(C(=O)c3c(F)ccc(NS(=O)(=O)c4cc(F)ccc4F)c3F)c2c1` [P-2015, N-[2,4-Difluoro-3-(5-methyl-1H-pyrrolo[2,3-b]pyridine-3-carbonyl)-phenyl]-2,5-difluoro-benzenesulfonamide], the IC50 (B-Raf) is reported as under 0.1 µM, the IC50 (CYP2C9) is reported as over 10 µM and the IC50 (CYP3A4(BQ)) is reported as over 10 µM. The “turbidity threshold (L, M, H) 7.4” value [1] was “M (moderate solubility if the threshold concentration is 31.3 μM to 250 μM)”, the “turbidity threshold (L, M, H) 4.5” value [1] was “L (low solubility if the threshold concentration is <31.3 04)” and the “turbidity threshold (L, M, H) 6.8” value [1] was “M (moderate solubility if the threshold concentration is 31.3 μM to 250 μM)”. The “turbidity threshold (L, M, H) 1.4” value [1] was “M (moderate solubility if the threshold concentration is 31.3 μM to 250 μM)”.

Compound `Cc1cnc2[nH]cc(C(=O)c3c(F)ccc(NS(=O)(=O)c4cccc(F)c4)c3F)c2c1` [P-2016, N-[2,4-Difluoro-3-(5-methyl-1H-pyrrolo[2,3-b]pyridine-3-carbonyl)-phenyl]-3-fluoro-benzenesulfonamide] has an IC50 (B-Raf) of under 0.1 µM, an IC50 (CYP2C9) of under 5 µM and an IC50 (CYP3A4(BQ)) of 5 to 10 µM. For the same compound, the “turbidity threshold (L, M, H) 7.4” value [1] was “M (moderate solubility if the threshold concentration is 31.3 μM to 250 μM)”, the “turbidity threshold (L, M, H) 4.5” value [1] was “L (low solubility if the threshold concentration is <31.3 04)” and the “turbidity threshold (L, M, H) 6.8” value [1] was “M (moderate solubility if the threshold concentration is 31.3 μM to 250 μM)”. The “turbidity threshold (L, M, H) 1.4” value [1] was “H (high solubility if the threshold concentration is >250 μM)”.

`O=C(c1c(F)ccc(NS(=O)(=O)c2ccccc2F)c1F)c1c[nH]c2nccc(Cl)c12` [P-2017, N-[3-(4-Chloro-1H-pyrrolo[2,3-b]pyridine-3-carbonyl)-2,4-difluoro-phenyl]-2-fluoro-benzenesulfonamide] showed an IC50 (B-Raf) of under 0.1 µM, an IC50 (CYP2C9) of over 10 µM and an IC50 (CYP3A4(BQ)) of over 10 µM. The “turbidity threshold (L, M, H) 7.4” value [1] was “M (moderate solubility if the threshold concentration is 31.3 μM to 250 μM)”, the “turbidity threshold (L, M, H) 4.5” value [1] was “M (moderate solubility if the threshold concentration is 31.3 μM to 250 μM)” and the “turbidity threshold (L, M, H) 6.8” value [1] was “M (moderate solubility if the threshold concentration is 31.3 μM to 250 μM)”. The “turbidity threshold (L, M, H) 1.4” value [1] was “M (moderate solubility if the threshold concentration is 31.3 μM to 250 μM)”.

`CCCS(=O)(=O)Nc1ccc(F)c(C(=O)c2c[nH]c3ncc(-c4ccc(SC)nc4)cc23)c1F` [P-2187, Propane-1-sulfonic acid {2,4-difluoro-3-[5-(6-methylsulfanyl-pyridin-3-yl)-1H-pyrrolo[2,3-b]pyridine-3-carbonyl]-phenyl}-amide] showed an IC50 (B-Raf) of under 0.01 µM, an IC50 (CYP2C9) of over 10 µM and an IC50 (CYP3A4(BQ)) of over 10 µM.

Work on `CCCS(=O)(=O)Nc1ccc(F)c(C(=O)c2c[nH]c3ncc(-c4cnc(OC)nc4OC)cc23)c1F` [P-2199, Propane-1-sulfonic acid {3-[5-(2,4-dimethoxy-pyrimidin-5-yl)-1H-pyrrolo[2,3-b]pyridine-3-carbonyl]-2,4-difluoro-phenyl}-amide] yielded an IC50 (B-Raf) of under 0.1 µM, an IC50 (CYP2C9) of over 10 µM and an IC50 (CYP3A4(BQ)) of over 10 µM.

In the case of `CCCS(=O)(=O)Nc1ccc(F)c(C(=O)c2c[nH]c3ncc(-c4ccc(N)nc4)cc23)c1F` [P-2214, Propane-1-sulfonic acid {3-[5-(6-amino-pyridin-3-yl)-1H-pyrrolo[2,3-b]pyridine-3-carbonyl]-2,4-difluoro-phenyl}-amide], the IC50 (B-Raf) is reported as under 0.01 µM, the IC50 (CYP2C9) is reported as over 10 µM and the IC50 (CYP3A4(BQ)) is reported as over 10 µM.

`CCCS(=O)(=O)Nc1ccc(F)c(C(=O)c2c[nH]c3ncc(-c4ccc(S(=O)(=O)CC)cc4)cc23)c1F` [P-2218, Propane-1-sulfonic acid {3-[5-(4-ethanesulfonyl-phenyl)-1H-pyrrolo[2,3-b]pyridine-3-carbonyl]-2,4-difluoro-phenyl}-amide] gave an IC50 (B-Raf) of under 0.1 µM, an IC50 (CYP2C9) of over 10 µM and an IC50 (CYP3A4(BQ)) of over 10 µM.

Work on `CCCc1ccc(-c2cnc3[nH]cc(C(=O)c4c(F)ccc(NS(=O)(=O)CCC)c4F)c3c2)cn1` [P-2224, Propane-1-sulfonic acid {2,4-difluoro-3-[5-(6-propyl-pyridin-3-yl)-1H-pyrrolo[2,3-b]pyridine-3-carbonyl]-phenyl}-amide] yielded an IC50 (B-Raf) of under 0.01 µM, an IC50 (CYP2C9) of 5 to 10 µM and an IC50 (CYP3A4(BQ)) of over 10 µM.

In the case of `CCCS(=O)(=O)Nc1ccc(F)c(C(=O)c2c[nH]c3ncc(-c4cccc(S(C)(=O)=O)c4)cc23)c1F` [P-2228, Propane-1-sulfonic acid {2,4-difluoro-3-[5-(3-methanesulfonyl-phenyl)-1H-pyrrolo[2,3-b]pyridine-3-carbonyl]-phenyl}-amide], the IC50 (B-Raf) is reported as under 0.01 µM, the IC50 (CYP2C9) is reported as over 10 µM and the IC50 (CYP3A4(BQ)) is reported as over 10 µM.
